Results: patent US12234248B2, “Co-crystal compounds comprising lithium ions and isonicotinamide” (UNIVERSITY OF LIMERICK, priority 2017, dated 2025)
“And” between values parts separate entries of the source, which are not always exact repeats. Equal values may be shown once.

How the values were obtained:
[1] = Stability of crystalline material under warm humid conditions (40° C., 75% relative humidity), PXRD before and after; assay type: physicochemical; conditions: stored at 40° C., 75% relative humidity; stable = retained crystal form for at least two weeks by PXRD
Experimental: The stability of these compounds under warm humid conditions was assessed as follows:
The crystalline material was stored at 40° C. in an atmosphere of 75% relative humidity.
Compounds were classed as stable if they retained their crystal form for at least two weeks as verified by examination of PXRD patterns collected before and after exposure to humidity.
It can be seen that the pattern obtained after 2 months at 75% relative humidity and 40° C. (upper trace) in this case is different.

[2] = Bioavailability in vivo in rats: lithium in plasma and brain by ICP-OES after oral administration
Experimental: Male Sprague-Dawley rats, weighing 240-290 g, were treated through gastric intubation with formulations of lithium and compared with lithium carbonate as a reference. For each formulation a group of 12 rats was treated. 4 mEq/kg of lithium were orally administered, after suspension in 2 mL of corn seeds oil (“Olio Cuore”).
Four intervals' post-administration time (2, 24, 48 and 72 hours) were considered and three rats for each of them, employing the protocol used by Zaworotko and coworkers (Smith et al., Mol. Pharmaceutics 2013, 10, 4728-4738). At each time interval blood samples were collected through intra-cardiac […], these were treated with 50 μL of sodium heparin and centrifuged for 10 min at 1600 rpm. Plasma samples of approximately […] each were thus obtained. The brain was explanted in toto with perfusion with phosphate buffered saline (PBS) in order to preserve it in a viable state. The plasma and brain samples were immediately frozen at a temperature of −80° C., after measuring the weight of the brains.
In order to determine the concentration of the lithium by means of the ICP-OES (Inductively Coupled Plasma Optical Emission Spectometry) analysis, plasma and brain samples were purified and mineralized, respectively to obtain solutions suitable for analysis.
A 0.5 mL aliquot was taken from each sample, to which were added equal amounts of MilliQ water and concentrated nitric acid, in order to bring the lithium ion in solution in the form of LiNO3 and to obtain the precipitation of the proteins. At this point, each sample was sonicated for 10 min in an ultrasonic bath and diluted to a volume of 5.0 mL.
All samples were subjected to centrifugation for a period of 40 min, at a rotational speed of 6000 rpm, to obtain complete plasma proteins/solution separation. At the end supernatant liquid containing lithium was diluted to a final volume of 15 mL by adding MilliQ water. The obtained solutions were stored at a temperature of 4° C. until analysis.
The purpose of this phase was to obtain liquid samples, suitable to ICP-OES analysis, containing lithium in solution, starting from the solid organic tissue of the brain. The mineralization process allows the complete degradation of organic substances until the total transformation into simple inorganic substances.
The first operation performed was that the drying of the fabric, obtained through the use of a digester open PerkinElmer SPB 100-12: each sample of brain has been inserted in special containers Digitube™ 100 mL and maintained at a temperature of 80° C. for 120 min.
The second step involved the mineralization true and proper brain: each sample were added to 10 mL of concentrated nitric acid and 1.0 mL of hydrogen peroxide, then the system was brought to a temperature of 120° C. for 120 min. until the complete mineralization. With this procedure you get the desired biological degradation of organic compounds and the consequent passage of lithium in solution. The solutions thus obtained were collected, brought to a final volume of 20 mL with MilliQ water and preserved at a temperature of 4° C. until time of analysis.
In order to obtain the determination of lithium ion concentrations in the samples previously prepared, optical emission spectrometry inductively coupled plasma ICP-OES was used (PerkinElmer Optima 8000 spectrometer).
The analysis was conducted at the fixed wavelength of lithium (λ=670.784 nm) and the intensity of the radiation emitted by each sample was measured and compared standard solutions.
Plasma and brain concentration data were processed using a non-compartmental approach using WinNonlin® software (Pharsight Corporation, USA) and Microsoft Excel XP (Microsoft Corporation, […]).

[3] = rat brain, 4 mEq/kg lithium oral, non-compartmental
[4] = rat plasma, 4 mEq/kg lithium oral, non-compartmental

With COc1ccc(C(=O)[O-])cc1.O=C(O)[C@@H]1CCCN1.[Li+] [Compound 5, [Li(4-methoxybenzoate)(L-proline)]n] the “Stable?” value [1] was “Yes”, the “Cmax (brain)” value [2, 3] was 4.9833 µg/g and the “Tmax (brain)” value [2, 3] was 48 h. The “t½_Lambda_z (brain)” value ([2]; rat brain, 4 mEq/kg lithium oral, terminal phase) was 13.4751 h, the “AUClast (brain)” value ([2]; rat brain, 4 mEq/kg lithium oral, time 0 to last quantifiable point) was 229.3867 mg·h/g and the “concentration of lithium in the brain compared with lithium carbonate” value ([2]; rat brain, after 48 hours, FIG. 12) was “higher”. For the same molecule, the “Relative Brain BA (UL crystal forms, oral vs Li2CO3, oral)” value ([2]; rat brain, relative to lithium carbonate) was 98.70%, the “Cmax (plasma)” value [2, 4] was 6.0800 µg/mL and the “Tmax (plasma)” value [2, 4] was 24 h. The “t½_Lambda_z (plasma)” value ([2]; rat plasma, 4 mEq/kg lithium oral, terminal phase) was 16.5057 h, the “Relative Plasma BA (UL crystal forms, oral vs Li2CO3 oral)” value ([2]; rat plasma, relative to lithium carbonate) was 90.41% and the “BRAIN CONC., Time(h) 2.00” value ([2]; rat, 4 mEq/kg lithium oral, 2 h, lithium in brain, individual rats (three per time)) was 0.23 µg/g and 0.48 µg/g and 0.46 µg/g. For the same molecule, the “PLASMA CONC, Time(h) 2.00” value ([2]; rat, 4 mEq/kg lithium oral, 2 h, lithium in plasma, individual rats (three per time)) was 2.82 µg/mL and 4.02 µg/mL and 2.65 µg/mL, the “BRAIN CONC., Time(h) 24.00” value ([2]; rat, 4 mEq/kg lithium oral, 24 h, lithium in brain, individual rats (three per time)) was 4.44 µg/g and 4.46 µg/g and 2.54 µg/g and the “PLASMA CONC, Time(h) 24.00” value ([2]; rat, 4 mEq/kg lithium oral, 24 h, lithium in plasma, individual rats (three per time)) was 7.15 µg/mL and 6.80 µg/mL and 4.29 µg/mL. For the same molecule, the “BRAIN CONC., Time(h) 48.00” value ([2]; rat, 4 mEq/kg lithium oral, 48 h, lithium in brain, individual rats (three per time)) was 4.42 µg/g and 4.76 µg/g and 5.77 µg/g, the “PLASMA CONC, Time(h) 48.00” value ([2]; rat, 4 mEq/kg lithium oral, 48 h, lithium in plasma, individual rats (three per time)) was 1.45 µg/mL and 1.91 µg/mL and 3.65 µg/mL and the “BRAIN CONC., Time(h) 72.00” value ([2]; rat, 4 mEq/kg lithium oral, 72 h, lithium in brain, individual rats (three per time)) was 1.08 µg/g and 0.43 µg/g and 2.84 µg/g. For the same molecule, the “PLASMA CONC, Time(h) 72.00” value ([2]; rat, 4 mEq/kg lithium oral, 72 h, lithium in plasma, individual rats (three per time)) was 0.63 µg/mL and 0.48 µg/mL and 1.32 µg/mL.
